In patent publication US8697739B2, “Bicyclic acetyl-CoA carboxylase inhibitors and uses thereof” (Novartis AG, priority 2010, dated 2014) one finds IC50 data, which are given here for 30 molecules.

In this assay the target is T1, human acetyl-CoA carboxylase 2 (ACC2) (Homo sapiens, UniProt O00763).
T1 construct: The cDNA encoding amino acids 144 to 2458 of human acetyl-CoA carboxylase 2; made in house; host or cells: Sf9 insect cells (baculovirus, pFastBac1)
T1 sequence (O00763 144-2458): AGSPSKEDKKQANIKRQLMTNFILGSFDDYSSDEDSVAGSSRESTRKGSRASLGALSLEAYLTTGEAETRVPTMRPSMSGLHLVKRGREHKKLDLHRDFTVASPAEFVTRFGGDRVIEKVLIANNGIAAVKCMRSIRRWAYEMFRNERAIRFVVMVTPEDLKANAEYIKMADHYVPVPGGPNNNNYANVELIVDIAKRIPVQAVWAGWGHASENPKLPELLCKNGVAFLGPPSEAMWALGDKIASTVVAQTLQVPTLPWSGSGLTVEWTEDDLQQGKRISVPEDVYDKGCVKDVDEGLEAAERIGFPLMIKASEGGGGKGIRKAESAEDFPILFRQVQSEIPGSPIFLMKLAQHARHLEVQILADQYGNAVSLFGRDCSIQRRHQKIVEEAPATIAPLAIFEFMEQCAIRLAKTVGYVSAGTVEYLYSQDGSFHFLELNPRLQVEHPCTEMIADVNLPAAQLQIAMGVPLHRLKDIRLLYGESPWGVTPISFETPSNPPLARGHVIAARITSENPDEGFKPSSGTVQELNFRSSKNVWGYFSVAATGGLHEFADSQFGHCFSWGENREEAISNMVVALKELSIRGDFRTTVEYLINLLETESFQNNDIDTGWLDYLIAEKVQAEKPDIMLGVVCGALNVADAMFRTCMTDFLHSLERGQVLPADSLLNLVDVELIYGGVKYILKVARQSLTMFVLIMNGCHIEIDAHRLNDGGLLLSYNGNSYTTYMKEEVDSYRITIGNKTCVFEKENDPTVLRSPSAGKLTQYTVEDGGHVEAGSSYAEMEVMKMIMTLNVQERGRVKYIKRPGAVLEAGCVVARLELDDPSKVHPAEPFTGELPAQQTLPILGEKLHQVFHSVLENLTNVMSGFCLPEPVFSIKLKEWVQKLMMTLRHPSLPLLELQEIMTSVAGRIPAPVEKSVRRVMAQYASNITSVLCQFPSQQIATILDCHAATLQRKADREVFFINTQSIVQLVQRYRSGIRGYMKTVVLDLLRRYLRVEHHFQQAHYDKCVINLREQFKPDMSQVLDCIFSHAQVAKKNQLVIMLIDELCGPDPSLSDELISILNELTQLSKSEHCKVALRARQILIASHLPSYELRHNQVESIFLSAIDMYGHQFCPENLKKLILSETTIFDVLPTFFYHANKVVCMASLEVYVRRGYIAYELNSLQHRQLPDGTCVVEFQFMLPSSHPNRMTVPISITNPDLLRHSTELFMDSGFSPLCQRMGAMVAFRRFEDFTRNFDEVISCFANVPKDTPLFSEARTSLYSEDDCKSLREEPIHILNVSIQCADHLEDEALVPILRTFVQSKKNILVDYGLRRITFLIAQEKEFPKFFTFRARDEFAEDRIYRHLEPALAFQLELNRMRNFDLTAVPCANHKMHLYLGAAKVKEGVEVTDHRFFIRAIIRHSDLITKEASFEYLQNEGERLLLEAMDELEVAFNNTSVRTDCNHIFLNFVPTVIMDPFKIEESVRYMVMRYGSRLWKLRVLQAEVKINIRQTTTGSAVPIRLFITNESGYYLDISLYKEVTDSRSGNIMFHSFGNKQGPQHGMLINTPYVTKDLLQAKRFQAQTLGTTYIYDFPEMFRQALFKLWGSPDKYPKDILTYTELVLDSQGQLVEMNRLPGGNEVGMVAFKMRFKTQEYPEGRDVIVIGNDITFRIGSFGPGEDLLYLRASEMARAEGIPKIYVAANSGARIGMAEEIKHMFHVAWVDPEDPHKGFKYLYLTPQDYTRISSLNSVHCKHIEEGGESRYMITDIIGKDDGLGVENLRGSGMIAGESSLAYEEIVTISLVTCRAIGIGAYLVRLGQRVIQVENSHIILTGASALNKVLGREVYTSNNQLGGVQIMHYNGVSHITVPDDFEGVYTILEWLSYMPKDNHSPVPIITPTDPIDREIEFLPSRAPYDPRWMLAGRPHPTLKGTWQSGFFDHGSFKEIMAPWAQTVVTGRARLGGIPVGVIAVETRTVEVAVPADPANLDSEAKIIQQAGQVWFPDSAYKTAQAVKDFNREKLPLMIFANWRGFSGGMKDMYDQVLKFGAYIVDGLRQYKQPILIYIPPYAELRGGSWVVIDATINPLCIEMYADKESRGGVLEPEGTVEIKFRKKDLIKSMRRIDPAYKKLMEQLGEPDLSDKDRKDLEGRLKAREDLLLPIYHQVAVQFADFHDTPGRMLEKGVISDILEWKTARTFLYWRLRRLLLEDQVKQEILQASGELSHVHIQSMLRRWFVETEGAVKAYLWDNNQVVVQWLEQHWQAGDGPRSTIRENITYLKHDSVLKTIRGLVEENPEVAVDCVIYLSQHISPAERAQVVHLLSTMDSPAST
The experiment in a line: Acetyl-CoA carboxylase enzyme assay (malonyl-CoA formation by LC/MS/MS). The format is biochemical. The conditions noted are these: recombinant human ACC2 (aa 144-2458); read-out: IC50 ACC2. An outline of the steps: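 Malonyl-CoA formation was read by LC/MS/MS MRM against a [13C3]-malonyl-CoA internal standard, after acetic acid quench. The enzyme was baculovirus/Sf9-expressed human ACC2 residues 144–2458, given 15 minutes room-temperature compound preincubation in HEPES pH 7.5 buffer with MgCl2, citrate and DTT. Substrate solution held 50 μM acetyl-CoA, 120 μM ATP and 2 mM KHCO3.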
Regarding `CC(C)OC(=O)c1ccc(NS(=O)(=O)c2ccc3nc(-c4ccc(C(C)C)cc4)[nH]c3c2)cc1` [Example 506, isopropyl 4-(2-(4-isopropylphenyl)-1H-benzo[d]imidazole-6-sulfonamido)benzoate], the IC50 turned out to be 1950 nM.

In the case of `C[C@@H](NC(=O)[C@H]1CC[C@H](NS(=O)(=O)c2cnc3c(c2)N(C)CCN3C)CC1)c1ccc(F)cc1` [Example 34, (1r,4R)-4-(1,4-dimethyl-1,2,3,4-tetrahydropyrido[3,2-b]pyrazine-7-sulfonamido)-N—((R)-1-(4-fluorophenyl)ethyl)cyclohexanecarboxamide], the IC50 came out at 138 nM.

As to `C[C@@H](NC(=O)[C@H]1CC[C@H](NS(=O)(=O)c2ccc3nc(C(F)(F)F)cn3c2)CC1)c1ccc(F)cc1` [Example 40, (1r,4R)-N-((R)-1-(4-fluorophenyl)ethyl)-4-(2-(trifluoromethyl)imidazo[1,2-a]pyridine-6-sulfonamido)cyclohexanecarboxamide], the 50% inhibitory concentration (IC50) is 34100 nM.

For the molecule `CC(NC(=O)[C@H]1CC[C@H](NS(=O)(=O)c2cnc3ccccc3c2)CC1)c1ccc(F)c(F)c1` (stereo partly drawn) [Example 66, (1r,4r)-N-(1-(3,4-difluorophenyl)ethyl)-4-(quinoline-3-sulfonamido)cyclohexanecarboxamide], the IC50 was 205 nM.

For `C[C@@H](NC(=O)[C@H]1CC[C@H](NS(=O)(=O)c2ccc3[nH]c([C@@H]4CCCO4)nc3c2)CC1)c1ccc(F)cc1` [Example 114, (1r,4R)-N-((R)-1-(4-fluorophenyl)ethyl)-4-(2-((S)-tetrahydrofuran-2-yl)-1H-benzo[d]imidazole-5-sulfonamido)cyclohexanecarboxamide], the IC50 worked out at 296 nM.

With `C[C@@H](NC(=O)[C@H]1CC[C@H](NS(=O)(=O)c2cnc3c(c2)OCCN3C)CC1)c1ccc(F)cc1` [Example 127, (1r-4R)-N-((R)-1-(4-fluorophenyl)ethyl)-4-(4-methyl-3,4-dihydro-2H-pyrido[3,2-b][1,4]oxazine-7-sulfonamido)cyclohexanecarboxamide], the IC50 was determined as 391 nM.

`Cc1cccc(C)c1Nc1nc2cc(S(=O)(=O)Nc3ccc(C(=O)OC(C)C)cc3)ccc2[nH]1` [Example 540, isopropyl 4-(2-(2,6-dimethylphenylamino)-1H-benzo[d]imidazole-5-sulfonamido)benzoate]: the IC50 was over 139000 nM.

In the case of `C[C@@H](NC(=O)[C@H]1CC[C@H](NS(=O)(=O)c2cnc3ccccc3c2)CC1)c1ccccc1F` [Example 58, (1r,4R)-N-((R)-1-(2-fluorophenyl)ethyl)-4-(quinoline-3-sulfonamido)cyclohexanecarboxamide], the IC50 came out at 185 nM.

Regarding `O=C1NCCCC[C@@H]1NC(=O)[C@H]1CC[C@H](NS(=O)(=O)c2ccc3[nH]c(-c4ccccc4)nc3c2)CC1` [Example 612, (1r,4S)-N-((S)-2-oxoazepan-3-yl)-4-(2-phenyl-1H-benzo[d]imidazole-5-sulfonamido)cyclohexanecarboxamide], the half-maximal inhibitory concentration (IC50) was found to be 16 nM.

With `Cc1nc2cc(S(=O)(=O)N[C@H]3CC[C@H](C(=O)N[C@H](C)c4ccc(F)cc4)CC3)ccc2n1C` [Example 5, (1r,4R)-4-(1,2-dimethyl-1H-benzo[d]imidazole-5-sulfonamido)-N—((R)-1-(4-fluorophenyl)ethyl)cyclohexanecarboxamide], the IC50 was determined as 244 nM.

With `CC(C)CNC(=O)[C@H]1CC[C@H](NS(=O)(=O)c2ccc3[nH]c(-c4ccccc4)nc3c2)CC1` [Example 629, (1r,4r)-N-isobutyl-4-(2-phenyl-1H-benzo[d]imidazole-5-sulfonamido)cyclohexanecarboxamide], the IC50 was 1760 nM.

For `C[C@@H](NC(=O)C1CCC(NS(=O)(=O)c2cnc3c(c2)N[C@@H](Cc2ccccc2)CS3)CC1)c1ccc(F)cc1` (stereo partly drawn) [Example 189, 4-((S)-2-benzyl-2,3-dihydro-1H-pyrido[2,3-b][1,4]thiazine-7-sulfonamido)-N-((R)-1-(4-fluorophenyl)ethyl)cyclohexanecarboxamide], the IC50 is 75 nM.

For the molecule `C[C@@H](NC(=O)[C@H]1CC[C@H](NS(=O)(=O)c2ccc3nc(-c4ccccc4)sc3c2)CC1)c1ccc(F)cc1` [Example 120, (1r,4R)-N-((R)-1-(4-fluorophenyl)ethyl)-4-(2-phenylbenzo[d]thiazole-6-sulfonamido)cyclohexanecarboxamide], the IC50 is 34 nM.

With `CC(C)[C@@H](C)NC(=O)[C@H]1CC[C@H](NS(=O)(=O)c2ccc3[nH]c(-c4cccnc4)cc3c2)CC1` [Example 289, (1r,4R)-N-((R)-3-methylbutan-2-yl)-4-(2-(pyridin-3-yl)-1H-indole-5-sulfonamido)cyclohexanecarboxamide], the IC50 stood at 234 nM.

With `C[C@@H](NC(=O)[C@H]1CC[C@H](NC(=O)c2ccc3cc(-c4ccccc4)[nH]c3c2)CC1)c1ccc(F)cc1` [Example 115, N-((1R,4r)-4-((R)-1-(4-fluorophenyl)ethylcarbamoyl)cyclohexyl)-2-phenyl-1H-indole-6-carboxamide], the IC50 stood at 29100 nM.

Consider `C[C@@H](NC(=O)[C@H]1CC[C@H](NS(=O)(=O)c2ccc3[nH]c(-c4ccc(F)cc4)nc3c2)CC1)c1ccccc1` [Example 276, (1r,4R)-4-(2-(4-fluorophenyl)-1H-benzo[d]imidazole-5-sulfonamido)-N-((R)-1-phenylethyl)cyclohexanecarboxamide], for which the IC50 is under 10 nM.

With `CC(C)OC(=O)C1(C)CCC(NS(=O)(=O)c2ccc3c(ccn3C)c2)CC1` (stereo not drawn) [Example 388, isopropyl 1-methyl-4-(1-methyl-1H-indole-5-sulfonamido)cyclohexanecarboxylate], the half-maximal inhibitory concentration (IC50) was 110 nM.

As to `CC(C)(C)c1nnc([C@H]2CC[C@H](NS(=O)(=O)c3ccc4[nH]c(-c5ccc(Cl)cc5)nc4c3)CC2)o1` [Example 609, N-((1r,4r)-4-(5-tert-butyl-1,3,4-oxadiazol-2-yl)cyclohexyl)-2-(4-chlorophenyl)-1H-benzo[d]imidazole-5-sulfonamide], the IC50 is 1220 nM.

With `CC(C)[C@H]1COCCN1C(=O)[C@H]1CC[C@H](NS(=O)(=O)c2ccc3cc(-c4ccccc4)n(C)c3c2)CC1` [Example 434, N-((1S,4r)-4-((S)-3-isopropylmorpholine-4-carbonyl)cyclohexyl)-1-methyl-2-phenyl-1H-indole-6-sulfonamide], the IC50 was 10 nM.

`C[C@@H](NC(=O)[C@H]1CC[C@H](NS(=O)(=O)c2ccc3cc(-c4ccccc4)n(C)c3c2)CC1)c1ccc(F)cc1` [Example 20, (1r,4R)—N—((R)-1-(4-fluorophenyl)ethyl)-4-(1-methyl-2-phenyl-1H-indole-6-sulfonamido)cyclohexanecarboxamide]: the IC50 is under 10 nM.

Take `O=C([C@H]1CC[C@H](NS(=O)(=O)c2cnc3ccccc3c2)CC1)N1CCNC[C@@H]1c1ccccc1` [Example 85, N-((1S,4r)-4-((S)-2-phenylpiperazine-1-carbonyl)cyclohexyl)quinoline-3-sulfonamide]: the IC50 came out at 143 nM.

Take `C[C@H]1CCCCN1C(=O)[C@H]1CC[C@H](NS(=O)(=O)c2ccc3cc(-c4ccccc4)n(C)c3c2)CC1` [Example 405, 1-methyl-N-((1S,4r)-4-((S)-2-methylpiperidine-1-carbonyl)cyclohexyl)-2-phenyl-1H-indole-6-sulfonamide]: the IC50 was 35 nM.

For `COC(=O)[C@H]1CC[C@H](NS(=O)(=O)c2ccc3nc(-c4cc(C)nc(C)c4)ccc3c2)CC1` [Example 252, (1r,4r)-methyl 4-(2-(2,6-dimethylpyridin-4-yl)quinoline-6-sulfonamido)cyclohexanecarboxylate], the 50% inhibitory concentration (IC50) was over 35000 nM.

Turning to `CC(C)(C)c1nnc([C@H]2CC[C@H](NS(=O)(=O)c3ccc4[nH]c(-c5ccccc5)nc4c3)CC2)o1` [Example 585, N-((1r,4r)-4-(5-tert-butyl-1,3,4-oxadiazol-2-yl)cyclohexyl)-2-phenyl-1H-benzo[d]imidazole-5-sulfonamide], the 50% inhibitory concentration (IC50) came out at 781 nM.

On to `O=C([C@H]1CC[C@H](NS(=O)(=O)c2cnc3c(c2)NCCN3)CC1)N1CCOCC1c1ccccc1` (stereo partly drawn) [Example 194, N-((1r,4r)-4-(3-phenylmorpholine-4-carbonyl)cyclohexyl)-1,2,3,4-tetrahydropyrido[3,2-b]pyrazine-7-sulfonamide], for which the concentration for half-maximal inhibition (IC50) worked out at 210 nM.

Take `CCOc1ccc2cc(S(=O)(=O)N[C@H]3CC[C@H](C(=O)N[C@@H](c4ccccc4)C(C)(C)O)CC3)ccc2n1` [Example 206, (1r,4S)-4-(2-ethoxyquinoline-6-sulfonamido)-N-((S)-2-hydroxy-2-methyl-1-phenylpropyl)cyclohexanecarboxamide]: the IC50 worked out at 20 nM.

For the molecule `CCN(C)C(=O)[C@H]1CC[C@H](NS(=O)(=O)c2ccc3[nH]c(-c4ccc(N5CCN(C)CC5)cc4)nc3c2)CC1` [Example 567, (1r,4r)-N-ethyl-N-methyl-4-(2-(4-(4-methylpiperazin-1-yl)phenyl)-1H-benzo[d]imidazole-5-sulfonamido)cyclohexanecarboxamide], the IC50 is 65 nM.

For the molecule `Cn1c(-c2ccccc2)cc2cc(S(=O)(=O)N[C@H]3CC[C@H](C(=O)N4CC(C(=O)O)CCC4c4ccccc4)CC3)ccc21` (stereo partly drawn) [Example 93, 1-((1r,4r)-4-(1-methyl-2-phenyl-1H-indole-5-sulfonamido)cyclohexanecarbonyl)-6-phenylpiperidine-3-carboxylic acid], the IC50 worked out at 545 nM.

`C[C@@H](NC(=O)[C@H]1CC[C@H](NS(=O)(=O)c2ccc3nc(N4CCNC(C(F)(F)F)C4)ccc3c2)CC1)c1ccc(F)cc1` (stereo partly drawn) [Example 248, (1r,4R)-N-((R)-1-(4-fluorophenyl)ethyl)-4-(2-(3-(trifluoromethyl)piperazin-1-yl)quinoline-6-sulfonamido)cyclohexanecarboxamide]: the IC50 came to 210 nM.

For `CC(C)OC(=O)c1ccc(NS(=O)(=O)c2ccc3nc(-c4cccc(O)c4)[nH]c3c2)cc1` [Example 511, isopropyl 4-(2-(3-hydroxyphenyl)-1H-benzo[d]imidazole-6-sulfonamido)benzoate], the IC50 worked out at 1050 nM.
